The values below come from patent publication US20180353505A1, “COMPATIBLE SOLUTE OR SOLUTE MIXTURE FOR USE IN THE PREVENTION OR TREATMENT OF DISEASES HAVING BARRIER DEFECTS IN EPITHELIAL TISSUES” (bitop AG, priority 2015, published 2018).

Where “and” joins values, the source holds several entries; their conditions need not be identical. Identical values can stand only once.

The test system of assay [1] is HaCaT (drying stress). Nature of the assay: Allergy prevention assay (APA) with drying stress, HaCaT monolayer. Format: cell-based, human. The text has this: (§1) The cell culture vessel (6) comprises an inner (7) and an outer (5) reservoir, wherein the two compartment are partitioned by a transparent ThinCerts membrane (5) having a pore size of 0.4 μm. This pore size allows for cytokine and protein movement between the outer and inner reservoir (FIG. 6.) Eukaryotic cells may not pass through this membrane thus forming a single-layered closed cell layer which covers the whole membrane. In doing so, an arrangement is achieved by the experimental setup which reflects the apical side (outer reservoir) and basolateral side (inner reservoir within the inset) of epithelial cells. However, allergens, such as e.g. ovalbumin (OVA), may pass the membrane without problems due to their low molecule size.
(§2) If a closed epithelial cell layer is present, OVA may only pass this membrane barrier through “gaps”, tight junction or transcytosis from the apical to the basolateral side. […]
The cells of the respective cell line (see Table 3) were cultivated on a membrane (3) (FIG. 6) until formation of a closed single-layered cell layer (2) (synonymously epithelial monolayer). […] Subsequently, the OVA content was measured in the inner and outer reservoir by means of OVA-specific ELISA and the relative penetration of the epithelial monolayer with OVA in pretreated and non-treated cells was determined. […]

The subject of assay [2] is human nasal mucosa epithelial cells (RPMI-2650). Put plainly: Allergy prevention assay (APA), OVA penetration, RPMI-2650 monolayer. Format: cell-based.
Description: as §1, §2
(§3) The cells of the respective cell line (see Table 3) were cultivated on a membrane (3) (FIG. 6) until formation of a closed single-layered cell layer (2) (synonymously epithelial monolayer). […] Subsequently, the OVA content was measured in the inner and outer reservoir by means of OVA-specific ELISA and the relative penetration of the epithelial monolayer with OVA in pretreated and non-treated cells was determined.

In assay [3] the test system is Claudin-1. Nature of the assay: Claudin-1 expression in HaCaT monolayer after heat stress (ELISA). It counts as cell-based, human. On the procedure: The HaCaT cell line was cultured in a plastic cell culture vessel until a closed single-layered cell layer (HaCaT monolayer) was formed. Subsequently, the monolayer was pretreated with 50 mM or 100 mM ectoine in cell culture medium for 6 hours (h). After pretreatment, temperature treatment of the cells was made at 44° C. for 30 min. After heat stress, the monolayer was again incubated in the incubator at 37° C. for 24 hours. Subsequently, the HaCaT monolayer was harvested and, after lysis by means of cryoshock (freezing, unfreezing and scraping with spatula), the lysate was analysed for Claudin-1 by means of ELISA.

Assay [4] deals with rat bronchial epithelial cells (RLE). Nature of the assay: Allergy prevention assay (APA), OVA penetration, RLE monolayer. It counts as cell-based.
Description: as §1, §2, §3

Assay [5] relates to epithelial cells of oral mucosa (TR146). Nature of the assay: TEER of TR146 monolayer after 12 h incubation, no stress (FIG. 2). It counts as cell-based, human. On the procedure:
A defined strength (U) of a direct current (DC) is applied between two electrodes E1 and E2 for determination of TEER, wherein the single-layered cell layer (monolayer) is arranged between the two electrodes (FIG. 1), such that the applied direct current (DC) flows through the cells. The measurement of TEER is made by an epithelial voltmeter (EVOM2). The resulting current I is measured according to the ohmic resistance R, wherein R=U/I (Benson K, Cramer S, Galla H J (2013) Impedance-based cell monitoring: Barrier properties and beyond. FluidsBarriers, 10:5.).
For this purpose, in in vitro experiments, epithelial tissues were sown on special cell culture carrier having a membrane (ThinCerts, pore size 0.4 μm) and cultured to a closed, single-layered cell layer (synonymously epithelial monolayer) on the membrane (FIG. 1).
(§4) The intact epithelial monolayer was respectively controlled by a TEER measurement. If no increase were measured in the TEER over two days, the epithelial cells have formed an intact epithelial monolayer having intact epithelial barrier (selective permeability barrier).
In order to measure effects of ectoine on barrier function, in particular membrane integrity, TR146 cells of an intact epithelial monolayer were incubated in cell culture medium with PBS (control), with 50 mM ectoine and with 0.1% lecithin (positive control) for 12 hours (h).

The test system of assay [6] is rabbit corneal epithelial cells (SIRC). Put plainly: Allergy prevention assay (APA), OVA penetration, SIRC monolayer. Format: cell-based.
Description: as §1
If a closed epithelial cell layer is present, OVA may only pass this membrane barrier through “gaps”, tight junction or transcytosis from the apical to the basolateral side. (Ding L, Zhang Y, Jiang Y, Wang L, Liu B, Liu J (2014) Transport of egg white ACE-Inhibitory peptide, Gln-Ile-Gly-Leu-Phe, in human intestinal Caco-2 cell monolayers with cytoprotective effect. J Agric Food Chem (Epub ahead of print)).
The cells of the respective cell line (see Table 3) were cultivated on a membrane (3) (FIG. 6) until formation of a closed single-layered cell layer (2) (synonymously epithelial monolayer). Subsequently, the epithelial monolayer was pretreated with ectoine (10, 50, 100 mM) in cell culture medium for 6 hours. After pretreatment with ectoine, the epithelia monolayer was incubated with 250 μg/ml of the allergen OVA (FIG. 6) over night. Subsequently, the OVA content was measured in the inner and outer reservoir by means of OVA-specific ELISA and the relative penetration of the epithelial monolayer with OVA in pretreated and non-treated cells was determined.

Assay [7] deals with human keratinocytes (HaCaT). Nature of the assay: Allergy prevention assay (APA), OVA penetration, HaCaT monolayer. It counts as cell-based. Particulars: OVA + 10 mM ectoine.
Description: as §1, §2, §3

Assay [8] has as its system porcine renal epithelial cells (LLC-PK1). Nature of the assay: TEER of LLC-PK1 monolayer after overnight incubation and BAK stress (FIG. 4). It counts as cell-based. Particulars: LLC-PK1, 50 mM ectoine over night, then BAK stress. On the procedure: (§5) A defined strength (U) of a direct current (DC) is applied between two electrodes E1 and E2 for determination of TEER, wherein the single-layered cell layer (monolayer) is arranged between the two electrodes (FIG. 1), such that the applied direct current (DC) flows through the cells. The measurement of TEER is made by an epithelial voltmeter (EVOM2). The resulting current I is measured according to the ohmic resistance R, wherein R=U/I (Benson K, Cramer S, Galla H J (2013) Impedance-based cell monitoring: Barrier properties and beyond. FluidsBarriers, 10:5.). […]
as §4
Additionally, an intact epithelial monolayer of porcine renal epithelial cells (LLC-PK1) was also incubated in cell culture medium with PBS (control), with 50 mM ectoine and with 0.1% lecithin (positive control) over night. Subsequently, stress treatment was made with 0.001% BAK and change of the transepithelial electric resistance [Ohm] was monitored hourly (FIG. 4).

In assay [9] the test system is epithelial cells of the oral mucosa (TR146). Nature of the assay: Allergy prevention assay (APA), OVA penetration, TR146 monolayer. Format: cell-based, human. Particulars: TR146, OVA + 100 mM ectoine.
Description: as §1, §2, §3

For assay [10] the test system is unchanged. Put plainly: TEER of TR146 monolayer after overnight incubation and 0.005% SDS stress (FIG. 3). Format: cell-based, human. Particulars: then 0.005% SDS. As for the experimental part: as §5, §4
In order to subsequently measure the effect of ectoine on membrane stability under the influence of chemicals, an intact epithelial monolayer of epithelial cells of the oral mucosa (TR146) were incubated in cell culture medium with PBS (control), with 50 mM ectoine and with 0.1% lecithin (positive control) over night. Subsequently, stress treatment was made with 0.005% SDS and change of the transepithelial electric resistance [Ohm] was monitored hourly (FIG. 3).

Assay [11] concerns human keratinocytes (HaCaT). Put plainly: TEER of HaCaT monolayer after overnight incubation and air drying (FIG. 5). It counts as cell-based. Particulars: preincubation with ectoine (50/100 mM), air drying 5 min at RT, rehydration, 24 h with OVA. On the procedure:
as §5, §4
In a further experiment, an intact epithelial monolayer of human keratinocytes (HaCaT) was also incubated in cell culture medium with PBS (control), with 50 mM ectoine and with 100 mM ectoine over night. […] After air drying at RT under sterile conditions, the cells were overlaid with medium including OVA allergen (250 μg/ml) and incubated at 37° C. in the incubator for 24 hours and subsequently the TEER value was measured.

As for `CC1=NC(C(=O)O)CCN1` (stereo not shown) [ectoine, 1,4,5,6-tetrahydro-2-methyl-4-pyrimidine carboxylic acid], the “Penetrations protection (as compared to PBS) [%] +/− SD” value in assay [1] (OVA + 50 mM ectoine) was 12% and 8.1 +/− 8.01%; in assay [1] (OVA + 100 mM ectoine) it was 11.6 +/− 6.25%; in assay [2] (OVA + 10 mM ectoine) it was 23.5 +/− 17.1%; in assay [2] (OVA + 100 mM ectoine), “up to 50%”; in [4] (OVA + 50 mM ectoine), −6.3 +/−7.91^ %; in assay [4] (OVA + 100 mM ectoine), −124.5 +/− 3.72%. Further, the “Penetrations protection (as compared to PBS) [%] +/− SD” value is given as 0 +/− 11.52% in [6] (OVA + 10 mM ectoine); 16.3 +/− 2.31% in assay [6] (OVA + 50 mM ectoine); “up to 50%” in assay [6] (OVA + 100 mM ectoine); −0.61 +/− 0.1% in assay [7]; 13.44 +/− 7.69% in [9]. In addition, in [3] (100 mM ectoine, 24 hours), the “Claudin-1 expression, factor over medium and PBS without ectoine” value worked out at 3. Also, the “Claudin-1 expression [Claudin-1] +/− SD” value in assay [3] (Ectoine 100 mM 6 h, 44° C. 30 min, 24 h at 37° C.) amounted to 0.22 ng/ml +/− 0.006. This molecule also returned a TEER value in assay [5] (TR146, 50 mM ectoine) of 215 Ohm. In assay [8], the “Effect on TEER / membrane stability” value is reported as “stabilization of the membrane of epithelial cells LLC-PK1 is already achieved”. Also, the TEER in [10] (TR146, 50 mM ectoine over night) is 215 Ohm; in assay [11], “approx. 180 Ohm”.
Molecule lecithin [reference compound] displayed a TEER value in assay [5] (TR146, 0.1% lecithin (positive control)) of 225 Ohm. Further, the TEER in assay [10] (TR146, 0.1% lecithin over night) is 225 Ohm.
